For 19 compounds, melting point, inhibition and IC50 results are on record in patent US7994204B2, “Binding inhibitor of sphingosine-1-phosphate” (Taisho Pharmaceutical Co., Ltd, priority 2006, dated 2011).

The term melting point denotes the temperature of the solid-liquid transition. As usually defined, the inhibition is the percentage by which the read-out fell short of the control. For orientation: IC50 means the concentration that gives 50% inhibition. Read a high IC50 as a need for much substance.

The structures appear in SMILES notation.

System in one data set: not given
Experiment: not given
Conditions: not given
On to `CCn1c(C(NS(=O)(=O)c2ccc(Cl)c(Cl)c2)C(C)C)cnc1Oc1ccc(F)cc1` (stereo not drawn) [Compound 221], for which the melting point lay within 101 to 102 °C.

In the case of `CCn1c(C(C)NS(=O)(=O)c2ccc(Cl)c(Cl)c2)cnc1OC(C)C` (stereo not drawn) [Compound 222], the melting point is 178 to 180 °C.

Turning to `CCCOc1ncc(C(C)NS(=O)(=O)c2ccc(Cl)c(Cl)c2)n1CC` (stereo not drawn) [Compound 223], the melting point fell in the range of 181 to 183 °C.

The compound `CCn1c(C(C)NS(=O)(=O)c2ccc(Cl)c(Cl)c2)cnc1OCC(F)(F)F` (stereo not drawn) [Compound 224] came in with a melting point of 133.5 to 134.5 °C.

The compound `CCc1nc(Oc2ccc(F)cc2)n(CC)c1C(C)NS(=O)(=O)c1ccc(Cl)c(Cl)c1` (stereo not drawn) [Compound 225] registered a melting point of 122 to 124 °C.

`C#CCCCOc1ncc(C(C)NS(=O)(=O)c2ccc(Cl)c(Cl)c2)n1CC` (stereo not drawn) [Compound 226] registered a melting point of 172.5 to 173.5 °C.

`CCn1c(C(C)NS(=O)(=O)c2ccc(Cl)c(Cl)c2)cnc1OCCCN1CCOCC1` (stereo not drawn) [Compound 228] returned a melting point of 160.5 to 162.5 °C.

Compound `CCn1c(C(C)NS(=O)(=O)c2ccc(Cl)c(Cl)c2)cnc1Oc1ccc(OCCN(C)C)cc1` (stereo not drawn) [Compound 229] registered a melting point of 106 to 107 °C.

Compound `CCn1c(C(C)NS(=O)(=O)c2ccc(Cl)c(Cl)c2)cnc1OCc1ccccc1` (stereo not drawn) [Compound 230] displayed a melting point of 102 to 103 °C.

`CCn1c(C(C)NS(=O)(=O)c2ccc(Cl)c(Cl)c2)cnc1OC1CCC1` (stereo not drawn) [Compound 231] gave a melting point of 162 to 163 °C.

Compound `CCn1c(Oc2ccc(F)cc2)nc(Br)c1C(C)NS(=O)(=O)c1ccc(Cl)c(Cl)c1` (stereo not drawn) [Compound 232] had a melting point of 128.5 to 129.5 °C.

In turn, `CCn1c(C(C)NS(=O)(=O)c2ccc(Cl)c(Cl)c2)cnc1OCCCCCCN(C)C` (stereo not drawn) [Compound 235] returned a melting point of 137.5 to 142.5 °C.

Take `CCn1c(C(C)NS(=O)(=O)c2ccc(Cl)c(Cl)c2)cnc1Oc1cccc(NC(C)=O)c1` (stereo not drawn) [Compound 236]: the melting point was 213.5 to 215.5 °C.

On to `C=CCCCOc1ncc(C(C)NS(=O)(=O)c2ccc(Cl)c(Cl)c2)n1CC` (stereo not drawn) [Compound 237], for which the melting point was determined as 152.5 °C.

The compound `CCn1c(C(C)NS(=O)(=O)c2ccc(Cl)c(Cl)c2)cnc1OCCCOC` (stereo not drawn) [Compound 239] registered a melting point of 151.5 to 152.5 °C.

`CCn1c(C(C)NS(=O)(=O)c2ccc3cc(C)ccc3c2)cnc1Oc1cccc(N2CCN(C)CC2)c1` (stereo not drawn) [Compound 242]: the melting point was 175 to 177 °C.

With `CCn1c(C(C)NS(=O)(=O)c2ccc3ccc(Cl)cc3c2)cnc1Oc1cccc(N2CCN(C)CC2)c1` (stereo not drawn) [Compound 243], the melting point was 135 to 136 °C.

For the compound `CCn1c(C(C)NS(=O)(=O)c2ccc3c(c2)CCC3)cnc1Oc1cccc(N2CCN(C)CC2)c1` (stereo not drawn) [Compound 244], the melting point was 160 to 162 °C.

In the case of `CCn1c(C(C)NS(=O)(=O)/C=C/c2ccccc2)cnc1Oc1cccc(N2CCN(C)CC2)c1` (stereo not drawn) [Compound 245], the melting point is 141 to 143 °C.

For the next data set, the target named is T1, human Edg-1 (S1P1) (Homo sapiens, UniProt P21453).
T1 construct: expressed in transfected cells; host or cells: HEK-293
T1 sequence (P21453 whole entry): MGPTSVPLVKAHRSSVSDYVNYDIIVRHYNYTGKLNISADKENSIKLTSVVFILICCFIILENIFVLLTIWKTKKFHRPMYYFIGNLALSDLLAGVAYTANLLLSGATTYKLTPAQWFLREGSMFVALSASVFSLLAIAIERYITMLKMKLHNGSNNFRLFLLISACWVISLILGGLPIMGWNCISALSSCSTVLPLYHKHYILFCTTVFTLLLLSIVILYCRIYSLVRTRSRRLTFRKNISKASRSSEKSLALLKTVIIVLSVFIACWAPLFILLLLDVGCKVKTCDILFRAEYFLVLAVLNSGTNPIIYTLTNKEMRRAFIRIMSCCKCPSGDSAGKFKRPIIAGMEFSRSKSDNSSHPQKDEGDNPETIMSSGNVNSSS
The data set can be described thus: S1P1 binding inhibition test (membrane, [33P]-S1P). The settings on record: compound 10 μM; [33P]-S1P 0.1 nM; human Edg-1 (S1P1) HEK-293 membrane fraction; read-out: Binding test (membrane) % inhibition (10 μM). An outline of the steps: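 Membranes from Edg-1 (S1P1)-expressing HEK-293 cells incubated 1 h at 30 °C in pH 7.4 Tris buffer with 0.1 nM [33P]-S1P and compound (10^−5 M, or various concentrations for IC50). Filter-bound radioactivity counted; background from non-transfected HEK-293 membranes; inhibition = [1−(A−C)/(B−C)]×100.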
Turning to `CCn1c(C(NS(=O)(=O)c2ccc(Cl)c(Cl)c2)C(C)C)cnc1Oc1ccc(F)cc1` (stereo not drawn) [Compound 221], the inhibition at 10 µM was found to be 52.6%.

Take `CCn1c(C(C)NS(=O)(=O)c2ccc(Cl)c(Cl)c2)cnc1OC(C)C` (stereo not drawn) [Compound 222]: the inhibition at 10 µM was 87.6%.

In the case of `CCCOc1ncc(C(C)NS(=O)(=O)c2ccc(Cl)c(Cl)c2)n1CC` (stereo not drawn) [Compound 223], the inhibition at 10 µM amounted to 92.1%.

`CCn1c(C(C)NS(=O)(=O)c2ccc(Cl)c(Cl)c2)cnc1OCC(F)(F)F` (stereo not drawn) [Compound 224]: the inhibition at 10 µM stood at 87%.

As for `CCc1nc(Oc2ccc(F)cc2)n(CC)c1C(C)NS(=O)(=O)c1ccc(Cl)c(Cl)c1` (stereo not drawn) [Compound 225], the inhibition at 10 µM amounted to 98.9%.

For the compound `C#CCCCOc1ncc(C(C)NS(=O)(=O)c2ccc(Cl)c(Cl)c2)n1CC` (stereo not drawn) [Compound 226], the inhibition at 10 µM was 91.5%.

On to `CCn1c(C(C)NS(=O)(=O)c2ccc(Cl)c(Cl)c2)cnc1OCCCN1CCOCC1` (stereo not drawn) [Compound 228], for which the inhibition at 10 µM amounted to 96%.

Regarding `CCn1c(C(C)NS(=O)(=O)c2ccc(Cl)c(Cl)c2)cnc1Oc1ccc(OCCN(C)C)cc1` (stereo not drawn) [Compound 229], the inhibition at 10 µM worked out at 99%.

In the case of `CCn1c(C(C)NS(=O)(=O)c2ccc(Cl)c(Cl)c2)cnc1OCc1ccccc1` (stereo not drawn) [Compound 230], the inhibition at 10 µM stood at 90.7%.

With `CCn1c(C(C)NS(=O)(=O)c2ccc(Cl)c(Cl)c2)cnc1OC1CCC1` (stereo not drawn) [Compound 231], the inhibition at 10 µM was determined as 97.4%.

As to `CCn1c(Oc2ccc(F)cc2)nc(Br)c1C(C)NS(=O)(=O)c1ccc(Cl)c(Cl)c1` (stereo not drawn) [Compound 232], the inhibition at 10 µM was 92.3%.

For `CCn1c(C(C)NS(=O)(=O)c2ccc(Cl)c(Cl)c2)cnc1OCCCCCCN(C)C` (stereo not drawn) [Compound 235], the inhibition at 10 µM stood at 94%.

As for `CCn1c(C(C)NS(=O)(=O)c2ccc(Cl)c(Cl)c2)cnc1Oc1cccc(NC(C)=O)c1` (stereo not drawn) [Compound 236], the inhibition at 10 µM is 96.8%.

As for `C=CCCCOc1ncc(C(C)NS(=O)(=O)c2ccc(Cl)c(Cl)c2)n1CC` (stereo not drawn) [Compound 237], the inhibition at 10 µM was found to be 93.1%.

On to `CCn1c(C(C)NS(=O)(=O)c2ccc(Cl)c(Cl)c2)cnc1OCCCOC` (stereo not drawn) [Compound 239], for which the inhibition at 10 µM turned out to be 95.9%.

In the case of `CCn1c(C(C)NS(=O)(=O)c2ccc3cc(C)ccc3c2)cnc1Oc1cccc(N2CCN(C)CC2)c1` (stereo not drawn) [Compound 242], the inhibition at 10 µM amounted to 94.5%.

Take `CCn1c(C(C)NS(=O)(=O)c2ccc3ccc(Cl)cc3c2)cnc1Oc1cccc(N2CCN(C)CC2)c1` (stereo not drawn) [Compound 243]: the inhibition at 10 µM turned out to be 97.4%.

Regarding `CCn1c(C(C)NS(=O)(=O)c2ccc3c(c2)CCC3)cnc1Oc1cccc(N2CCN(C)CC2)c1` (stereo not drawn) [Compound 244], the inhibition at 10 µM was 98.3%.

On to `CCn1c(C(C)NS(=O)(=O)/C=C/c2ccccc2)cnc1Oc1cccc(N2CCN(C)CC2)c1` (stereo not drawn) [Compound 245], for which the inhibition at 10 µM came to 98.9%.

Staying with this data set, now noted: membrane system binding test, various concentrations.
With `CCn1c(C(C)NS(=O)(=O)c2ccc(Cl)c(Cl)c2)cnc1Oc1ccc(OCCN(C)C)cc1` (stereo not drawn) [Compound 229], the IC50 is not above 70 nM.

On to `CCn1c(C(C)NS(=O)(=O)c2ccc(Cl)c(Cl)c2)cnc1OCCCCCCN(C)C` (stereo not drawn) [Compound 235], for which the half-maximal inhibitory concentration (IC50) came to 58.5 nM.

Turning to `CCn1c(C(C)NS(=O)(=O)c2ccc(Cl)c(Cl)c2)cnc1Oc1cccc(NC(C)=O)c1` (stereo not drawn) [Compound 236], the IC50 was not above 70 nM.

As for `CCn1c(C(C)NS(=O)(=O)c2ccc3c(c2)CCC3)cnc1Oc1cccc(N2CCN(C)CC2)c1` (stereo not drawn) [Compound 244], the IC50 was 32.5 nM.
